Data taken from the NIST ThermoML archive (doi:10.1021/je050170x).

Experiments:
[1] = for surface tension liquid-gas: Wilhelmy-plate method; for mass density / viscosity: 101.33 kPa, Liquid; for viscosity: Capillary tube (Ostwald / Ubbelohde) method
[2] = refractive index (Na D-line) (dimensionless); conditions: 101.33 kPa, Liquid, Standard Abbe refractometry

CCOC(=O)Cc1ccccc1 [ethyl phenylacetate]
Conditions | mass density, [1] [kg/m3] | refractive index, [2] | surface tension liquid-gas, [1] [mN/m] | viscosity, [1] [mPa·s]
288.15 K | 1036.35 | 1.49971 | 35.9 | 3.002
298.15 K | 1026.96 | 1.49513 | 34.6 | 2.384
308.15 K | 1017.6 | 1.49063 | 33.5 | 1.948
318.15 K | 1008.26 | 1.48583 | 32.8 | 1.624
328.15 K | 998.93 | 1.48149 | 31.6 | 1.383
338.15 K | 989.61 | 1.47688 | 30.6 | 1.191
348.15 K | 980.28 | 1.47224 | 29.4 | 1.037
358.15 K | 970.95 | 1.46747 | 28.6 | 0.908

CCC(=O)OCc1ccccc1 [benzyl propanoate]
Conditions | mass density, [1] [kg/m3] | refractive index, [2] | surface tension liquid-gas, [1] [mN/m] | viscosity, [1] [mPa·s]
288.15 K | 1036.86 | 1.4995 | 36 | 2.55
298.15 K | 1027.6 | 1.49498 | 34.8 | 2.123
308.15 K | 1018.38 | 1.49074 | 33.6 | 1.787
318.15 K | 1009.15 | 1.48611 | 32.4 | 1.515
328.15 K | 999.93 | 1.48171 | 31.6 | 1.294
338.15 K | 990.72 | 1.47711 | 30.5 | 1.114
348.15 K | 981.49 | 1.47252 | 29.5 | 0.964
358.15 K | 972.25 | 1.46768 | 28.5 | 0.84

CCCCCCCC(=O)OCC [ethyl octanoate]
Conditions | mass density, [1] [kg/m3] | refractive index, [2] | surface tension liquid-gas, [1] [mN/m] | viscosity, [1] [mPa·s]
288.15 K | 870.79 | 1.41991 | 27.2 | 1.697
298.15 K | 862.15 | 1.4156 | 26.4 | 1.411
308.15 K | 853.52 | 1.41137 | 25.5 | 1.193
318.15 K | 844.87 | 1.40702 | 24.7 | 1.027
328.15 K | 836.21 | 1.40294 | 23.8 | 0.892
338.15 K | 827.53 | 1.39857 | 22.8 | 0.784
348.15 K | 818.58 | 1.39418 | 22 | 0.694
358.15 K | 810.05 | 1.38974 | 21.4 | 0.617

CC(=O)OCCC(C)C [3-methylbutyl ethanoate]
Conditions | mass density, [1] [kg/m3] | refractive index, [2] | surface tension liquid-gas, [1] [mN/m] | viscosity, [1] [mPa·s]
288.15 K | 877.72 | 1.40288 | 25.4 | 0.94
298.15 K | 867.91 | 1.39836 | 24.3 | 0.804
308.15 K | 858.07 | 1.39365 | 23.4 | 0.704
318.15 K | 848.17 | 1.38895 | 22.4 | 0.627
328.15 K | 838.22 | 1.38447 | 21.6 | 0.559
338.15 K | 828.19 | 1.37971 | 20.6 | 0.484
348.15 K | 818.07 | 1.37487 | 19.6 | 0.434
358.15 K | 807.85 | 1.36995 | 18.7 | 0.39

CCCCCC(=O)OCC [ethyl hexanoate]
Conditions | mass density, [1] [kg/m3] | refractive index, [2] | surface tension liquid-gas, [1] [mN/m] | viscosity, [1] [mPa·s]
288.15 K | 875.64 | 1.4095 | 26.4 | 1.102
298.15 K | 866.29 | 1.40504 | 25.4 | 0.94
308.15 K | 856.91 | 1.40055 | 24.5 | 0.814
318.15 K | 847.5 | 1.39597 | 23.6 | 0.711
328.15 K | 838.05 | 1.39164 | 22.7 | 0.63
338.15 K | 828.55 | 1.38705 | 21.8 | 0.562
348.15 K | 818.99 | 1.38239 | 21 | 0.504
358.15 K | 809.34 | 1.37768 | 20 | 0.452

COC(=O)c1ccccc1 [methyl benzoate]
Conditions | mass density, [1] [kg/m3] | refractive index, [2] | surface tension liquid-gas, [1] [mN/m] | viscosity, [1] [mPa·s]
288.15 K | 1093.23 | 1.51915 | 38.6 | 2.297
298.15 K | 1083.92 | 1.51467 | 37.2 | 1.851
308.15 K | 1074.34 | 1.50993 | 35.8 | 1.531
318.15 K | 1064.62 | 1.50514 | 34.8 | 1.297
328.15 K | 1054.82 | 1.50058 | 33.7 | 1.108
338.15 K | 1044.99 | 1.49584 | 32.5 | 0.97
348.15 K | 1035.23 | 1.49107 | 31.3 | 0.852
358.15 K | 1025.6 | 1.48624 | 30.4 | 0.75
